Laboratory results as given in patent publication US11364264B2, “Ex vivo antigen-presenting cells or activated CD-positive T cells for treatment of cancer” (priority 2016, dated 2022).
Where two headings read alike, the source gives them in different places.

Assays:
[1] = system: Luc-40L mesothelioma cancer cells; test: Luc-40L mesothelioma model, survival (Example 4); assay type: in vivo, mouse; conditions: VIC-008 20 μg and/or AMD3100 1 μg/g body weight once a week for four weeks
[2] = system: Luc-AE17 mesothelioma cancer cells; test: Luc-AE17 mesothelioma model, survival (Example 4); assay type: in vivo, mouse; conditions: VIC-008 20 μg and/or AMD3100 1 μg/g body weight once a week for four weeks
[3] = system: 40L mouse mesothelioma cell line; test: 40L intraperitoneal malignant mesothelioma model: tumor weight and survival (Example 5); assay type: in vivo; conditions: VIC-008 20 μg per mouse, AMD3100 1 mg/kg i.p. weekly x4
[4] = system: AE17 mouse mesothelioma cell line; test: AE17 intraperitoneal malignant mesothelioma model: tumor weight and survival (Example 5); assay type: in vivo; conditions: VIC-008 20 μg per mouse, AMD3100 1 mg/kg i.p. weekly x4
[5] = system: 40L mouse mesothelioma cell line; test: Immune profiling by flow cytometry of tissues from 40L tumor-bearing mice; assay type: in vivo; conditions: for Proportion of CD8+ T cells in total live cells compared to saline: one week after last treatment
[6] = system: AE17 mouse mesothelioma cell line; assay type: in vivo; conditions: for Proportion of CD8+ T cells in total live cells compared to saline: one week after last treatment
[7] = system: 40L mouse mesothelioma cell line; test: Ex vivo restimulation with recombinant mesothelin, intracellular IFN-γ in CD8+ T cells, 40L mice; conditions: splenic CD8+ T cells, restimulated with recombinant mesothelin ex vivo
[8] = system: AE17 mouse mesothelioma cell line; test: Ex vivo restimulation with recombinant mesothelin, intracellular IFN-γ in CD8+ T cells, AE17 mice; conditions: restimulated with recombinant mesothelin ex vivo
[9] = system: GFP-Foxp3 expressing CD4+ splenocytes (Treg cells); conditions: AMD3100 5 μg/ml, 24 hours

c1cc(CN2CCCNCCNCCCNCC2)ccc1CN1CCCNCCNCCCNCC1 [AMD3100]
Survival of tumor-bearing mice compared to saline [1]: slight effect on survival | Survival of tumor-bearing mice compared to saline [2]: slight effect on survival | Animal survival compared to saline [3]: only modest benefit to survival | Animal survival compared to saline [4]: only modest benefit to survival | Proportion of PD-1-expressing CD8+ T cells compared to saline ([5]; spleens): significantly fewer | Proportions of Treg cells ([5]; spleens): did not alter | Proportion of CD8+ T cells in total live cells compared to saline ([5]; spleens): did not increase | IL-2+ CD40L+ cells among the Foxp3+ CD25− Treg population ([5]; tumors): significantly more cells | Proportion of PD-1-expressing CD8+ T cells compared to saline ([5]; tumors): significantly fewer | Proportions of Treg in tumors compared to saline ([5]; tumors): significantly decreased | Ratio of CD8+ T cells to Treg in tumors compared to saline ([5]; tumors): increased | Ratio of CD25− cells to CD25+ cells within the Foxp3+ population ([5]; tumors): significantly increased | Proportion of CD8+ T cells in total live cells compared to saline ([5]; tumors): did not increase | Cell ratio of CD8+ T cells to Treg cells compared to saline ([6]; lymph nodes): significantly increased | IL-2+ CD40L+ cells among the Foxp3+ CD25− Treg population ([6]; lymph nodes): significantly more cells | Proportion of PD-1-expressing CD8+ T cells compared to saline ([6]; lymph nodes): significantly fewer | Ratio of CD25− cells to CD25+ cells within the Foxp3+ population ([6]; lymph nodes): significantly increased | Treg in the lymph nodes ([6]; lymph nodes): generally reduced | Proportion of CD8+ T cells in total live cells compared to saline ([6]; lymph nodes): did not increase | Proportion of PD-1-expressing CD8+ T cells compared to saline ([6]; spleens): significantly fewer | Proportion of CD8+ T cells in total live cells compared to saline ([6]; spleens): did not increase | Proportion of PD-1-expressing CD8+ T cells compared to saline ([6]; tumors): significantly fewer | Proportions of Treg in tumors compared to saline ([6]; tumors): significantly decreased | Ratio of CD8+ T cells to Treg in tumors compared to saline ([6]; tumors): increased | Proportion of CD8+ T cells in total live cells compared to saline ([6]; tumors): did not increase | Mesothelin-specific IFN-γ expression in CD8+ T cells compared to saline [7]: did not enhance | Mesothelin-specific IFN-γ expression in CD8+ T cells compared to saline ([8]; lymph node CD8+ T cells): did not enhance | Mesothelin-specific IFN-γ expression in CD8+ T cells compared to saline ([8]; splenic CD8+ T cells): did not enhance | Ratio of the proportion of CD25− cells to CD25+ cells in the Foxp3+ CD4+ population ([9]; no anti-CD3/CD28 stimulation): did not change | Conversion of Foxp3+ CD25− Treg into IL-2+ CD40L+ cells ([9]; with anti-CD3/CD28 antibodies (1 μg/ml), P=0.0015): converted more | Ratio of the proportion of CD25− cells to CD25+ cells in the Foxp3+ CD4+ population ([9]; with anti-CD3/CD28 antibodies (1 μg/ml), P=0.0017): significantly increased
